PubChem BioAssay AID2060893 (Molecular Pharmacology Branch, DTP, NCI, 2025)
Several values for one entry are separate records, joined by “and”; a condition that tells them apart may be missing. Identical values can stand only once.

Tested on: K86415-001-R-J1-PDC complex spheroids, viability
Assay: Anticancer human tumor K86415-001-R-J1-PDC patient-derived lung adenocarcinoma cell line growth inhibition [RAS]
Settings: for viability, T/C: stronger effect = lower value
Text: RAS pathway inhibitors in Combinations in Complex Spheroids
A high-throughput screen of multi-cell type tumor spheroids was designed to identify active combinations of RAS pathway inhibitors and targeted small molecules. Complex spheroids include a stromal component modeled by human endothelial cells (HUVEC) and fibroblasts modeled by human mesenchymal stem cells (MSCs). The concentration ranges selected for each drug and investigational agent were based upon clinically achievable concentrations if the clinical Cmax of the agent was known.
Compounds. The drugs and investigational agents: abemaciclib (NSC768073), cobimetinib (NSC768068), divarasib (GDC6063, NSC841802), docetaxel (NSC628503), GDC-1971 (RLY-1971, NSC841576), gemcitabine (NSC613327), inavolisib (NSC800729), ipatasertib (NSC767898), KB-0742 (NSC834161), MRTX-1133 (NSC836407), osimertinib (NSC779217), RMC-4630 (NSC839698), RMC-6236 (NSC851965), RMC-6291 (NSC852671), Ro-3306 (NSC812927), sapanisertib (NSC764658), SN-38 (NSC673596), staurosporine (NSC755774), SY5609 (NSC837396), and tovorafenib (DAY101, NSC766906), were obtained from the National Cancer Institute (NCI) Developmental Therapeutics Program Chemical Repository. The FDA-approved anticancer drug set is available from the NCI Developmental Therapeutics Program. […] The stock solutions were prepared in dimethyl sulfoxide (DMSO, Sigma-Aldrich, St. Louis, MO, cat. D2650) at 800-fold the tested concentration and stored at -70 degrees C prior to their use. All drugs and investigational agents were tested over a range starting from a high concentration at or near the clinical Cmax and decreasing in half-log increments. If the clinical Cmax for an agent had not been determined, the highest concentration tested was 10 microM.
Cell Culture. All cells were maintained in an incubator at 37 degrees C and 5% CO2 with 95% humidity. The PDC lines were cultured according to standard operating procedures established by the NCI PDMR. All PDCs were thawed and cultured in Matrigel-coated flasks prepared with a working solution of 1X Ham's F-12 nutrient mix, without supplementation (Invitrogen, Waltham, MA, cat. 11765054), 100 U/mL penicillin-streptomycin (Invitrogen, cat. 15140122), and 2.5% Matrigel (Corning Inc., Corning, NY, cat. 354248) for the first three passages. The 362531-283-R-J2-PDC and 782815-120-R-J1-PDC lines were cultured in 6C/Colon 1B media, which includes advanced DMEM/F-12 (Thermo Fisher Scientific, cat. 12634028), 10 mM HEPES (Thermo Fisher Scientific, cat. 15630080), 1X GlutaMAX supplement (Thermo Fisher Scientific, cat. 35050061), 0.1 mg/mL primocin (InvivoGen, San Diego, CA, cat. ant-pm-2), 10% defined fetal bovine serum, heat inactivated (HyClone Laboratories Inc., Logan, UT, cat. SH30070.03HI), 50% L-WRN conditioned media (ATCC, cat. CRL-3276), 1.25 mM N-Acetyl-L-cysteine (Sigma-Aldrich, cat. A9165), 10 mM nicotinamide (Sigma-Aldrich, cat. N0636), 1X B-27 supplement (Thermo Fisher Scientific, cat. 17504044), 1X N-2 supplement (Thermo Fisher Scientific, cat. 17502048), 50 ng/mL human EGF (Thermo Fisher Scientific, cat. PHG0311), and 10 microM Y-27632 dihydrochloride (Tocris Bioscience, cat. 1254). The K12877-001-R-J1-PDC line was cultured in 6I media, which includes all 6C/Colon 1B media plus 10 ng/mL human FGF-10 (PeproTech, cat. 100-26), 1 ng/mL human FGF-2 (PeproTech, cat. 100-18B), 1 µM prostaglandin E2 (Tocris Bioscience, cat. 2296), […] hydrocortisone (Sigma-Aldrich, cat. H4001), and […] bovine insulin (Sigma-Aldrich, cat. I6634). The K86415-001-R-J1-PDC line was cultured in 6D media, which includes all 6C/Colon 1B media components minus the L-WRN conditioned media. The 485176-168-R4-J1-PDC was cultured in PANC media, which includes all 6C/Colon 1B media plus 100 ng/mL human FGF-10 (PeproTech, cat. 100-26), 500 nM SB-431542 (Selleckchem, cat. S1067), and 10 nM gastrin (Tocris Bioscience, cat. 3006). […]
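Further: spheroids exposed to agents for seven days before readout.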

CC(Nc1ccc2c(c1)OCCn1cc(N3C(=O)OCC3C(F)F)nc1-2)C(N)=O (centres undefined) + CCn1c(-c2cc(N3CCN(C)CC3)cnc2C(C)OC)c2c3cc(ccc31)-c1csc(n1)CC(NC(=O)C1CC1C)C(=O)N1CCCC(N1)C(=O)OCC(C)(C)C2
IC50 (curve of first compound, second compound 0.000949 µM): < 31.6 nM
IC50 (curve of first compound, second compound 0.003 µM): < 31.6 nM
IC50 (curve of first compound, second compound 0.00949 µM): < 31.6 nM
IC50 (curve of first compound, second compound 0.03 µM): < 31.6 nM
IC50 (curve of first compound, second compound 0.0949 µM): < 31.6 nM
IC50 (curve of first compound, second compound 0.3 µM): < 31.6 nM
viability, T/C (second compound 0.000949 µM, first compound 0.0316 µM): 44.1%
viability, T/C (second compound 0.000949 µM, first compound 0.1 µM): 28.2%
viability, T/C (second compound 0.000949 µM, first compound 0.316 µM): 22.2%
viability, T/C (second compound 0.000949 µM, first compound 1 µM): 20.6%
viability, T/C (second compound 0.000949 µM, first compound 3.16 µM): 16.6%
viability, T/C (second compound 0.000949 µM, first compound 10 µM): 6.57%
viability, T/C (second compound 0.003 µM, first compound 0.0316 µM): 18.8%
viability, T/C (second compound 0.003 µM, first compound 0.1 µM): 12.9%
viability, T/C (second compound 0.003 µM, first compound 0.316 µM): 12.1%
viability, T/C (second compound 0.003 µM, first compound 1 µM): 8.44%
viability, T/C (second compound 0.003 µM, first compound 3.16 µM): 5.02%
viability, T/C (second compound 0.003 µM, first compound 10 µM): 1.84%
viability, T/C (second compound 0.00949 µM, first compound 0.0316 µM): 11.8%
viability, T/C (second compound 0.00949 µM, first compound 0.1 µM): 4.96%
viability, T/C (second compound 0.00949 µM, first compound 0.316 µM): 3.08%
viability, T/C (second compound 0.00949 µM, first compound 1 µM): 2.36%
viability, T/C (second compound 0.00949 µM, first compound 3.16 µM): 1.25%
viability, T/C (second compound 0.00949 µM, first compound 10 µM): 0.72%
viability, T/C (second compound 0.03 µM, first compound 0.0316 µM): 4.01%
viability, T/C (second compound 0.03 µM, first compound 0.1 µM): 1.42%
viability, T/C (second compound 0.03 µM, first compound 0.316 µM): 1.24%
viability, T/C (second compound 0.03 µM, first compound 1 µM): 1.2%
viability, T/C (second compound 0.03 µM, first compound 3.16 µM): 0.54%
viability, T/C (second compound 0.03 µM, first compound 10 µM): 0.63%
viability, T/C (second compound 0.0949 µM, first compound 0.0316 µM): 1.94%
viability, T/C (second compound 0.0949 µM, first compound 0.1 µM): 1.08%
viability, T/C (second compound 0.0949 µM, first compound 0.316 µM): 0.93%
viability, T/C (second compound 0.0949 µM, first compound 1 µM): 0.62%
viability, T/C (second compound 0.0949 µM, first compound 3.16 µM): 0.8%
viability, T/C (second compound 0.0949 µM, first compound 10 µM): 0.59%
viability, T/C (second compound 0.3 µM, first compound 0.0316 µM): 2.35%
viability, T/C (second compound 0.3 µM, first compound 0.1 µM): 0.93%
viability, T/C (second compound 0.3 µM, first compound 0.316 µM): 0.73%
viability, T/C (second compound 0.3 µM, first compound 1 µM): 0.47%
viability, T/C (second compound 0.3 µM, first compound 3.16 µM): 0.85%
viability, T/C (second compound 0.3 µM, first compound 10 µM): 0.49%

NC1c2ccccc2OC12CCN(c1cnc3c(N4CCCc5ncccc54)n[nH]c3n1)CC2 (centres undefined)
viability, T/C (compound 0.0316 µM): 46.3% [middle of 4 runs]
viability, T/C (compound 0.1 µM): 29.9% [middle of 4 runs]
viability, T/C (compound 0.316 µM): 22.7% [middle of 4 runs]
viability, T/C (compound 1 µM): 19.7% and 20.6% and 16.5%
viability, T/C (compound 3.16 µM): 21% [middle of 4 runs]
viability, T/C (compound 10 µM): 23.1% [middle of 4 runs]
IC50 (curve of compound): < 31.6 nM
